Experimental data published in US20100298377A1, “NOVEL SUBSTITUTED INDAZOLES, THE PREPARATION THEREOF AND USE OF SAME IN THERAPEUTICS” (SANOFI-AVENTIS, priority 2007, published 2010).
pIC50: −log10 of the molar value. Structures can show the parent of a compound that is named as a salt.

Molecular target: AKT1 (Homo sapiens, UniProt P31749, S473D)
Test: Determination of the IC50 for AKT1 (HTRF)
Format: biochemical
Conditions: AKT1 without PH domain, activated by PDK1
Protocol: Determination of the IC50 for AKT1
The inhibitory potential of the compounds is evaluated by HTRF, a time-resolved fluorescence technique based on non-radiative energy transfer (FRET). […] This phosphorylation allows the kinase activity of AKT1 to be activated.
Starting with a 10 mM solution of inhibitors, 3 μl are taken and placed in a 96-well polypropylene plate containing 27 μl of 100% DMSO. The various test compounds are diluted in cascade by taking 15 μl of compound, to which are added 30 μl of 100% DMSO.
The various reaction components are added in the following manner:
Next, 10 μl of the inhibitor solution are added. Finally, the reaction is initiated by adding 10 μl of a solution containing both 100 μM of ATP and 10 μM of biotinylated peptide. The sequence of this peptide is as follows: biot-[…] (reference Neosystem SP000560). The plate is then covered with a plastic film, agitated and finally incubated at RT for 30 minutes. […] After incubation overnight at 4° C., the plate is read using an Ultra evolution spectrophotometer from Tecan. […] All the tests are performed in duplicate and the mean of the two tests is calculated.
For each point, a delta F is calculated in the following manner:
R(Ratio)=counts665 nm/counts620 nm
ΔF % is calculated by the Tecan Ultra Evolution machine.

AKT1, sequence (P31749 118-480 S473D limits assumed): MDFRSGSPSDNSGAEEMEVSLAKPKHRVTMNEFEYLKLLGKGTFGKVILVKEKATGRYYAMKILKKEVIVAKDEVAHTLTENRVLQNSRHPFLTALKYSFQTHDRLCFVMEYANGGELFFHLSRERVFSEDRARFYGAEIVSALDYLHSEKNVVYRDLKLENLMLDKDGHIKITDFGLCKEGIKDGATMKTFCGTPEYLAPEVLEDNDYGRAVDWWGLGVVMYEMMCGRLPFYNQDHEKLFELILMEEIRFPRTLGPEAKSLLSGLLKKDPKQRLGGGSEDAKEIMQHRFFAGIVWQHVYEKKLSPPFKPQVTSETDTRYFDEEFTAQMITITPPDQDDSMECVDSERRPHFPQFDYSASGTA

Compound	pIC50
CN1CCCCC1C(NC(=O)Nc1ccc2[nH]nc(-c3ccc(S(N)(=O)=O)cc3)c2c1)c1ccccc1 [Ex 12, 4-[5-({[(1-Methylpiperid-2-yl)(phenyl)methyl]carbamoyl}amino)-1H-indazol-3-yl]benzenesulfonamide((S,2S),(R,2R))]	> 7.00
CN1CCCCC1C(NC(=O)Nc1ccc2[nH]nc(-c3cccnc3)c2c1)c1ccccc1 [Ex 14, 1-[(1-Methylpiperid-2-yl)(phenyl)methyl]-3-(3-pyrid-3-yl-1H-indazol-5-yl)urea((S,2S),(R,2R))]	> 7.00
CN1CCCCC1C(NC(=O)Nc1cc(F)c2[nH]nc(NC(=O)c3ccccc3)c2c1)c1ccccc1 [Ex 19, N-[7-Fluoro-5-({[(1-methylpiperid-2-yl)(phenyl)methyl]carbamoyl}amino)-1H-indazol-3-yl]benzamide((S,2S),(R,2R))]	5.70 to 6.30
CN1CCCCC1C(NC(=O)Nc1ccc2[nH]nc(C#Cc3cccc(F)c3)c2c1)c1ccccc1 [Ex 22, 1-{3-[(3-Fluorophenyl)ethynyl]-1H-indazol-5-yl}-3-[(1-methylpiperid-2-yl)(phenyl)methyl]urea((S,2S),(R,2R))]	6.30 to 7.00
CN1CCCCC1C(NC(=O)Nc1ccc2[nH]nc(NC(=O)c3ccccc3)c2c1)c1ccccc1 [Ex 28, N-[5-({[(1-Methylpiperid-2-yl)(phenyl)methyl]carbamoyl}amino)-1H-indazol-3-yl]benzamide((S,2S),(R,2R))]	6.30 to 7.00
(7-Fluoro-1H-indazol-5-yl)-(S)-(3-chloro-5-fluorophenyl)-(S)-piperid-2-ylmethyl carbamate [Ex 49]	> 7.00

Now from value to compound:

pIC50	Compound
6.30 to 7.00	O=C(Nc1ccc2[nH]nc(C#Cc3ccccc3)c2c1)N[C@@H](c1ccc(Cl)c(Cl)c1)[C@@H]1CCCCN1 [Ex 26, 1-{(S)-(3,4-Dichlorophenyl)[(2S)-piperid-2-yl]methyl}-3-[3-(phenylethynyl)-1H-indazol-5-yl]urea]
6.30 to 7.00	CN1CCCCC1C(c1ccccc1)n1ccn(-c2ccc3[nH]ncc3c2)c1=O [Ex 30, 1-(1H-Indazol-5-yl)-3-[(1-methylpiperid-2-yl)phenylmethyl]-1,3-dihydroimidazol-2-one((S,2S),(R,2R))]
5.70 to 6.30	CN1CCCCC1C(c1ccccc1)N(C)C(=O)Nc1ccc2[nH]ncc2c1 [Ex 32, 3-(1H-Indazol-5-yl)-1-methyl-1-[(1-methylpiperid-2-yl)phenylmethyl]urea((S,2S),(R,2R))]
5.70 to 6.30	CN(C(=O)NC(c1ccccc1)C1CCCCN1C)c1ccc2[nH]ncc2c1 [Ex 33, 1-(1H-Indazol-5-yl)-1-methyl-3-[(1-methylpiperid-2-yl)(phenyl)methyl]urea((S,2S),(R,2R))]
6.30 to 7.00	O=C(Nc1ccc2[nH]ncc2c1)O[C@@H](c1cc(F)cc(Cl)c1)[C@H]1CCCCN1 [Ex 39c, (S)-(3-Chloro-5-fluorophenyl)[(2R)-piperid-2-yl]methyl 1H-indazol-5-ylcarbamate]
> 7.00	O=C(Nc1ccc2[nH]ncc2c1)O[C@H](c1cc(F)cc(Cl)c1)[C@H]1CCCCN1 [Ex 39d, (R)-(3-Chloro-5-fluorophenyl)[(2R)-piperid-2-yl]methyl 1H-indazol-5-ylcarbamate]
5.70 to 6.30	CCOC(=O)c1cccc(C(OC(=O)Nc2ccc3[nH]ncc3c2)[C@@H]2CCCCN2)c1 (stereo partly drawn) [Ex 41, Ethyl 3-{[(1H-Indazol-5-ylcarbamoyl)oxy][(2S)-piperid-2-yl]methyl}benzoate]
5.70 to 6.30	CC(C)(C)c1ccc(NC(=O)c2cccc(C(OC(=O)Nc3ccc4[nH]ncc4c3)[C@@H]3CCCCN3)c2)cc1 (stereo partly drawn) [Ex 42, {3-[(4-tert-Butylphenyl)carbamoyl]phenyl}[(2S)-piperid-2-yl]methyl 1H-Indazol-5-yl carbamate]
6.30 to 7.00	O=C(Nc1ccc2[nH]ncc2c1)OC(c1cccc(C(=O)Nc2ccccc2)c1)[C@@H]1CCCCN1 (stereo partly drawn) [Ex 43, [3-(Anilinocarbonyl)phenyl][(2S)-piperid-2-yl]methyl 1H-Indazol-5-ylcarbamate]
> 7.00	O=C(Nc1ccc2[nH]ncc2c1)O[C@@H](c1cccc(C(F)(F)F)c1)[C@@H]1CCCCN1 [Ex 44, (S)-(3-Trifluoromethylphenyl)[(2S)-piperid-2-yl]methyl 1H-indazol-5-ylcarbamate]
> 7.00	O=C(Nc1ccc2[nH]ncc2c1)O[C@@H](c1cccc(I)c1)[C@@H]1CCCCN1 [Ex 45, (S)-(3-Iodophenyl)[(2S)-piperid-2-yl]methyl 1H-indazol-5-ylcarbamate]

System: not given
Test: not given
Conditions: not given

Compound	melting point
CN1CCCCC1C(NC(=O)Nc1ccc2[nH]nc(NC(=O)c3ccccc3)c2c1)c1ccccc1 (as salt: fumarate) [Ex 28, N-[5-({[(1-Methylpiperid-2-yl)(phenyl)methyl]carbamoyl}amino)-1H-indazol-3-yl]benzamide((S,2S),(R,2R))]	235 °C
CN1CCCCC1C(NC(=O)Nc1ccc2[nH]nc(-c3ccc(S(N)(=O)=O)cc3)c2c1)c1ccccc1 (as salt: fumaric acid salt) [Ex 12, 4-[5-({[(1-Methylpiperid-2-yl)(phenyl)methyl]carbamoyl}amino)-1H-indazol-3-yl]benzenesulfonamide((S,2S),(R,2R))]	220 °C
CN1CCCCC1C(NC(=O)Nc1ccc2[nH]nc(-c3ccncc3)c2c1)c1ccccc1 (as salt: fumaric acid salt) [Ex 13, 1-[(1-Methylpiperid-2-yl)(phenyl)methyl]-3-(3-pyrid-4-yl-1H-indazol-5-yl)urea((S,2S),(R,2R))]	205 °C
CN1CCCCC1C(NC(=O)Nc1ccc2[nH]nc(-c3cccnc3)c2c1)c1ccccc1 (as salt: fumaric acid salt) [Ex 14, 1-[(1-Methylpiperid-2-yl)(phenyl)methyl]-3-(3-pyrid-3-yl-1H-indazol-5-yl)urea((S,2S),(R,2R))]	210 °C
CN1CCCCC1C(NC(=O)Nc1ccc2[nH]nc(-c3ccccn3)c2c1)c1ccccc1 (as salt: fumaric acid salt) [Ex 15, 1-[(1-Methylpiperid-2-yl)(phenyl)methyl]-3-(3-pyrid-2-yl-1H-indazol-5-yl)urea((S,2S),(R,2R))]	> 250 °C
CN1CCCCC1C(NC(=O)Nc1ccc2[nH]nc(-c3nc4ccccc4[nH]3)c2c1)c1ccccc1 (as salt: fumaric acid salt) [Ex 17, 1-[3-(1H-Benzimidazol-2-yl)-1H-indazol-5-yl]-3-[(1-methylpiperid-2-yl)(phenyl)methyl]urea((S,2S),(R,2R))]	250 °C

Further lines, results first:

melting point	Compound
231 to 232 °C	CN1CCCCC1C(c1ccccc1)n1ccn(-c2ccc3[nH]ncc3c2)c1=O (as salt: fumarate) [Ex 30, 1-(1H-Indazol-5-yl)-3-[(1-methylpiperid-2-yl)phenylmethyl]-1,3-dihydroimidazol-2-one((S,2S),(R,2R))]
145 °C	S=C(Nc1ccc2[nH]ncc2c1)N[C@@H](c1ccc(Cl)c(Cl)c1)[C@@H]1CCCCN1 (as salt: fumarate) [Ex 31, 1-{(S)-(3,4-Dichlorophenyl)[(2S)-piperid-2-yl]methyl}-3-(1H-indazol-5-yl)thiourea]
200 to 201 °C	Cc1n[nH]c2ccc(NC(=O)NC(c3ccccc3)C3CCCCN3C)cc12 (as salt: fumaric acid salt) [Ex 18, 3-Methyl-5-({[(1-methylpiperid-2-yl)(phenyl)methyl]carbamoyl}amino)-1H-indazole ((S,2S),(R,2R))]
